{
  "source": "patent US7585869B2",
  "about": "“Substituted heterocylces for the treatment of abnormal cell growth” (Pfizer, Inc., priority 2003, dated 2009)",
  "origin": "cited, not measured here",
  "key": {"[1]": {"tested_on": "transplanted human mammary carcinoma which expresses epidermal growth factor receptor tyrosine kinase (EGFR)", "conditions": "athymic nude mice"}, "[2]": {"tested_on": "carcinoma which does not express the EGF receptor"}},
  "data": [
    {"smiles": "O=CN/C=C/c1cc(O)ccc1O", "note": "[erbstatin]", "values": [
      {"measurement": "effect on growth of transplanted human mammary carcinoma", "setting": "[1]", "value": "selectively attenuates the growth"},
      {"measurement": "effect on growth of another carcinoma", "setting": "[2]", "value": "without effect on the growth"}
    ]}
  ]
}
